Common to all, as to type: cell-based, Streptococcus suis serotype 2
Holding throughout (settings): 18 h

Test [1] relates to SS2 strains including SC19 and P1/7.
Experimental: (§1) Tryptic soy broth (TSB; Beijing Land Bridge Technology Co., ltd, China) with 10% fetal bovine serum (FBS; Zhejiang Tianhang Biotechnology Co., ltd, China) were used as bacterial growth media for antimicrobial activity assays and tryptic soy agar (TSA; Beijing Land Bridge Technology Co., ltd, China) plates containing 10% FBS were used for the colony counting assay. Bacteria were cultured at 37 °C for 18 h in TSB or TSA agar plates.
(§2) Antimicrobial activity of cathelicidins was performed using a broth microdilution assay. Briefly, bacteria were maintained in TSB medium with 10% FBS at 37 °C and grown to mid-logarithmic growth phase before being tested. Then, 50 μL of peptides (0 to 80 μM) in triplicate were mixed with an equal volume of bacterial suspension (2 × 10^6 CFU/mL) in 96-well plates and incubated for 18 h at 37 ℃. The minimum inhibitory concentration (MIC) was defined as the lowest concentration of ones at which there was no visible bacteria growth. The minimum bactericidal concentration (MBC) was determined by colony counting. Fifty microliter mixed medium were removed from wells in which visible bacteria growth was not observed and then were plated out on TSA plates. After overnight culture at 37 °C, survival bacteria were counted.
In a further test the test system is SS2 strain SC19.
For a further test, the system named is SS2 strain P1/7. Put plainly: Antimicrobial activity assay (broth microdilution MIC, MBC by colony counting). (In general: Broth dilution looks for growth in wells or tubes with falling amounts of substance.)
The mark [2] stands for this setting: broth microdilution, TSB + 10% FBS, peptides 0 to 80 μM in triplicate, bacterial suspension 2 × 10^6 CFU/mL, 37 °C, no visible growth.

Converted amounts (≈) assume the structure as drawn. Peptide text beside a SMILES is read from it.

Experimental for SS2 strain P1/7: as §1, §2
Experimental for SS2 strain SC19: as §1, §2

In the case of `CC[C@H](C)[C@H](NC(=O)[C@H](CCCCN)NC(=O)[C@H](CCCNC(=N)N)NC(=O)[C@H](CC(C)C)NC(=O)[C@H](Cc1ccccc1)NC(=O)[C@H](CCCNC(=N)N)NC(=O)CNC(=O)[C@H](Cc1ccccc1)NC(=O)[C@@H](N)CCCNC(=N)N)C(=O)N[C@@H](CCCNC(=N)N)C(=O)N[C@@H](CCCNC(=N)N)C(=O)N[C@@H](Cc1ccccc1)C(=O)N[C@@H](CCCNC(=N)N)C(=O)N1CCC[C@H]1C(=O)N[C@@H](CCCCN)C(=O)N[C@H](C(=O)N[C@H](C(=O)N[C@H](C(=O)N[C@H](C(=O)N[C@H](C(=O)N[C@@H](CCC(N)=O)C(=O)NCC(=O)N[C@@H](CO)C(=O)N[C@@H](C)C(=O)N[C@@H](CCCNC(=N)N)C(=O)N[C@@H](Cc1ccccc1)C(=O)O)[C@@H](C)CC)[C@@H](C)O)[C@@H](C)CC)[C@@H](C)O)C(C)C` [CATH-2] (H-RFGRFLRKIRRFRPKVTITIQGSARF-OH), in test [1], the “MBC (anti-SS2 activity)” value was 10 to 20 µM and the “MIC (anti-SS2 activity)” value was in the range of 10 to 20 µM. For the same molecule, the “MBC toward SC19” value with SS2 strain SC19 was 20 µM (≈ 64.2 µg/mL). The “MBC toward P1/7” value against SS2 strain P1/7 came to 10 µM (≈ 32.1 µg/mL).
For the molecule `CC[C@H](C)[C@H](NC(=O)CNC(=O)[C@H](C)NC(=O)[C@H](C)NC(=O)[C@@H](NC(=O)[C@@H](NC(=O)[C@H](CC(N)=O)NC(=O)[C@@H](NC(=O)[C@H](C)NC(=O)[C@@H](NC(=O)[C@@H]1CCCN1C(=O)[C@@H](NC(=O)[C@H](CC(C)C)NC(=O)[C@@H]1CCCN1C(=O)[C@H](Cc1c[nH]c2ccccc12)NC(=O)[C@H](Cc1ccccc1)NC(=O)[C@H](CCCNC(=N)N)NC(=O)[C@H](CCCCN)NC(=O)[C@@H](NC(=O)[C@@H](N)CCCNC(=N)N)C(C)C)C(C)C)C(C)C)[C@@H](C)CC)[C@@H](C)O)C(C)C)C(=O)N[C@@H](CC(N)=O)C(=O)N[C@@H](CC(C)C)C(=O)N[C@@H](Cc1ccc(O)cc1)C(=O)N[C@@H](CCCCN)C(=O)N[C@@H](C)C(=O)N[C@H](C(=O)N[C@@H](CCCNC(=N)N)C(=O)N[C@@H](CCCNC(=N)N)C(=O)N[C@@H](CCCCN)C(=O)O)[C@@H](C)CC` [CATH-3] (H-RVKRFWPLVPVAINTVAAGINLYKAIRRK-OH), in test [1], the “MBC (anti-SS2 activity)” value was in the range of 10 to 20 µM and the “MIC (anti-SS2 activity)” value lay in the range of 10 to 20 µM. The “MBC toward SC19” value against SS2 strain SC19 stood at 20 µM (≈ 67 µg/mL). The “MBC toward P1/7” value in the test on SS2 strain P1/7 is 10 µM (≈ 33.5 µg/mL).
For `CC[C@H](C)[C@H](NC(=O)CNC(=O)[C@H](CC(N)=O)NC(=O)[C@H](CC(C)C)NC(=O)[C@H](Cc1c[nH]c2ccccc12)NC(=O)[C@H](CCC(=O)O)NC(=O)[C@H](Cc1c[nH]c2ccccc12)NC(=O)[C@@H](NC(=O)[C@H](CCCNC(=N)N)NC(=O)[C@@H](NC(=O)[C@H](Cc1c[nH]c2ccccc12)NC(=O)[C@H](Cc1c[nH]c2ccccc12)NC(=O)[C@H](CC(N)=O)NC(=O)[C@H](CCCNC(=N)N)NC(=O)[C@@H](NC(=O)[C@@H]1CCCN1)[C@@H](C)CC)[C@@H](C)CC)[C@@H](C)CC)C(=O)N[C@@H](CCCNC(=N)N)C(=O)N[C@@H](CCCCN)C(=O)N[C@@H](CCCNC(=N)N)C(=O)N[C@@H](CC(C)C)C(=O)N[C@@H](CCCNC(=N)N)C(=O)N[C@@H](CCC(N)=O)C(=O)N[C@@H](CCCNC(=N)N)C(=O)N[C@@H](CO)C(=O)N1CCC[C@H]1C(=O)N[C@@H](Cc1ccccc1)C(=O)N[C@@H](Cc1ccc(O)cc1)C(=O)N[C@H](C(=O)N[C@@H](CCCNC(=N)N)C(=O)NCC(=O)N[C@@H](Cc1c[nH]cn1)C(=O)N[C@@H](CC(C)C)C(=O)N[C@@H](CC(N)=O)C(=O)N[C@H](C(=O)N[C@H](C(=O)N[C@@H](CO)C(=O)N[C@H](C(=O)N1CCC[C@H]1C(=O)N[C@@H](CCC(N)=O)C(=O)N1CCC[C@H]1C(=O)O)[C@@H](C)O)[C@@H](C)O)C(C)C)C(C)C` [CATH-B1] (H-PIRNWWIRIWEWLNGIRKRLRQRSPFYVRGHLNVTSTPQP-OH), in test [1], the “MBC (anti-SS2 activity)” value is more than 40 µM and the “MIC (anti-SS2 activity)” value was more than 40 µM. Besides, the “MBC toward SC19” value against SS2 strain SC19 is more than 40 µM. In addition, in the test on SS2 strain P1/7, the “MBC toward P1/7” value was more than 40 µM.
Turning to `CC[C@H](C)[C@H](NC(=O)[C@H](CCCCN)NC(=O)[C@H](CCC(=O)O)NC(=O)CNC(=O)CNC(=O)[C@H](CCCCN)NC(=O)[C@H](CCCNC(=N)N)NC(=O)[C@H](CC(C)C)NC(=O)[C@H](CC(C)C)NC(=O)CN)C(=O)NCC(=O)N[C@@H](CCC(=O)O)C(=O)N[C@@H](CCCCN)C(=O)N[C@@H](CC(C)C)C(=O)N[C@@H](CCCCN)C(=O)N[C@@H](CCCCN)C(=O)N[C@H](C(=O)NCC(=O)N[C@@H](CCC(N)=O)C(=O)N[C@@H](CCCCN)C(=O)N[C@H](C(=O)N[C@@H](CCCCN)C(=O)N[C@@H](CC(N)=O)C(=O)N[C@@H](Cc1ccccc1)C(=O)N[C@@H](Cc1ccccc1)C(=O)N[C@@H](CCC(N)=O)C(=O)N[C@@H](CCCCN)C(=O)N[C@@H](CC(C)C)C(=O)N[C@H](C(=O)N1CCC[C@H]1C(=O)N[C@@H](CCC(N)=O)C(=O)N1CCC[C@H]1C(=O)N[C@@H](CCC(=O)O)C(=O)N[C@@H](CCC(N)=O)C(=O)O)C(C)C)[C@@H](C)CC)[C@@H](C)CC` [CRAMP] (H-GLLRKGGEKIGEKLKKIGQKIKNFFQKLVPQPEQ-OH), in test [1], the “MBC (anti-SS2 activity)” value is more than 40 µM and the “MIC (anti-SS2 activity)” value is more than 40 µM. Besides, the “MBC toward SC19” value in the test with SS2 strain SC19 was more than 40 µM. Further, the “MIC toward SC19” value in the test with SS2 strain SC19 (setting [2]) was found to be 40 µM. The “MBC toward P1/7” value against SS2 strain P1/7 is more than 40 µM. Also, in the test with SS2 strain P1/7 (setting [2]), the “MIC toward P1/7” value was determined as 40 µM.
In the case of `CC[C@H](C)[C@H](NC(=O)[C@H](CCCCN)NC(=O)[C@H](CCCCN)NC(=O)[C@H](CC(C)C)NC(=O)[C@H](CCCNC(=N)N)NC(=O)[C@H](CCCCN)NC(=O)[C@H](CCCNC(=N)N)NC(=O)[C@@H](NC(=O)[C@H](CCCCN)NC(=O)[C@H](CCCCN)NC(=O)[C@H](CCCNC(=N)N)NC(=O)[C@H](CC(C)C)NC(=O)[C@H](CCCNC(=N)N)NC(=O)[C@H](CCCNC(=N)N)NC(=O)[C@H](Cc1ccccc1)NC(=O)[C@H](CCCNC(=N)N)NC(=O)CN)[C@@H](C)O)C(=O)NCC(=O)N[C@@H](CCCCN)C(=O)N[C@H](C(=O)N[C@@H](CC(C)C)C(=O)N[C@@H](CCCCN)C(=O)N[C@@H](Cc1c[nH]c2ccccc12)C(=O)N[C@H](C(=O)N1CCC[C@H]1C(=O)N1CCC[C@H]1C(=O)N[C@H](C(=O)N[C@H](C(=O)NCC(=O)N[C@@H](CO)C(=O)N[C@H](C(=O)N1CCC[C@H]1C(=O)N[C@@H](CC(C)C)C(=O)NCC(=O)N[C@@H](CS)C(=O)NCC(=O)O)[C@@H](C)CC)C(C)C)[C@@H](C)CC)[C@@H](C)CC)C(C)C` [PMAP-36] (H-GRFRRLRKKTRKRLKKIGKVLKWIPPIVGSIPLGCG-OH), in test [1], the “MBC (anti-SS2 activity)” value was more than 40 µM and the “MIC (anti-SS2 activity)” value was more than 40 µM. Further, the “MBC toward SC19” value with SS2 strain SC19 was 40 µM (≈ 166 µg/mL). Further, in the test on SS2 strain P1/7, the “MBC toward P1/7” value was more than 40 µM.
On to `CC[C@H](C)[C@H](NC(=O)[C@H](CCCNC(=N)N)NC(=O)[C@@H]1CCCN1C(=O)[C@@H]1CCCN1C(=O)[C@H](CC(C)C)NC(=O)[C@H](CCCNC(=N)N)NC(=O)[C@@H]1CCCN1C(=O)[C@@H]1CCCN1C(=O)[C@H](Cc1ccccc1)NC(=O)[C@H](Cc1ccccc1)NC(=O)[C@@H]1CCCN1C(=O)[C@@H]1CCCN1C(=O)[C@@H]1CCCN1C(=O)[C@H](CCCNC(=N)N)NC(=O)[C@@H]1CCCN1C(=O)[C@H](CCCNC(=N)N)NC(=O)[C@@H]1CCCN1C(=O)[C@H](CC(C)C)NC(=O)[C@H](Cc1ccc(O)cc1)NC(=O)[C@@H]1CCCN1C(=O)[C@@H]1CCCN1C(=O)[C@H](CCCNC(=N)N)NC(=O)[C@@H]1CCCN1C(=O)[C@H](CCCNC(=N)N)NC(=O)[C@H](CCCNC(=N)N)NC(=O)[C@@H](N)CCCNC(=N)N)C(=O)N1CCC[C@H]1C(=O)N1CCC[C@H]1C(=O)NCC(=O)N[C@@H](Cc1ccccc1)C(=O)N1CCC[C@H]1C(=O)N1CCC[C@H]1C(=O)N[C@@H](CCCNC(=N)N)C(=O)N[C@@H](Cc1ccccc1)C(=O)N1CCC[C@H]1C(=O)N1CCC[C@H]1C(=O)N[C@@H](CCCNC(=N)N)C(=O)N[C@@H](Cc1ccccc1)C(=O)N1CCC[C@H]1C(=O)O` [PR-39] (H-RRRPRPPYLPRPRPPPFFPPRLPPRIPPGFPPRFPPRFP-OH), for which, in test [1], the “MBC (anti-SS2 activity)” value is more than 40 µM and the “MIC (anti-SS2 activity)” value was more than 40 µM. In addition, the “MBC toward SC19” value with SS2 strain SC19 was more than 40 µM. Also, the “MBC toward P1/7” value against SS2 strain P1/7 was more than 40 µM.

The values above are taken from paper PMC10463303 (Veterinary Research, 2023).
